Data from patent US20200147070A1, “INDUCING PHOSPHOLIPIDOSIS FOR ENHANCING THERAPEUTIC EFFICACY” (Nextcea Inc., priority 2017, published 2020).

What was measured:
cathepsin B1 = cathepsin B1 (Rattus norvegicus, UniProt P00787); settings: Wibo and Poole 1974; cited from earlier work
liver, kidney, and heart = assay: Electron microscopic examination of tissue sections for phospholipidosis, 2-week repeat dose study; assay type: in vivo, Sprague-Dawley rats; settings: co-administered bedaquiline 60 mg/kg/day and citalopram 70 mg/kg/day, 2 weeks
Description: FIG. 3 is a set of electron micrographs depicting the accumulation of lysosomal myeloid bodies, indicative of PL, in rat tissues. Sprague-Dawley rats received once daily oral (PO) co-administration of bedaquiline (60 mg/kg/day) and citalopram (70 mg/kg/day) for 2 weeks.
Sprague-Dawley rats were co-administered bedaquiline (60 mg/kg/day) and citalopram (70 mg/kg/day) in a 2-week repeat dose study. Tissue sections (liver, kidney, and heart) were collected at 2 weeks for electron microscopic examination and PL biomarker/proteomic evaluation.

di-22:6-BMP = assay: PL biomarker di-22:6-BMP in tissues and urine; assay type: in vivo, Sprague-Dawley rats; settings: 2 weeks; for PL biomarker di-22:6-BMP in tissues (PL induced in both treatment groups): amiodarone 150 mg/kg/day alone or co-administered with fluoxetine 10 mg/kg/day, heart, liver, kidney, lung; for di-22:6-BMP biomarker in various tissues (PL induced): fluoxetine 10 mg/kg/day alone or co-administered with amiodarone 150 mg/kg/day
cathepsin-B = target: T1, cathepsin-B (Rattus norvegicus, UniProt P00787); assay: Fluorescence-based cathepsin-B activity assay (RR-AFC substrate) in liver and spleen homogenates of treated rats; assay type: in vivo, Sprague-Dawley rats
T1 construct: from tissue; host or cells: liver and spleen homogenates of Sprague-Dawley rats
Description: Cathepsin-B is a lysosomal protease that plays an important role in intracellular proteolysis. […] Liver and spleen homogenates were analyzed using a fluorescence-based assay that utilized the preferred cathepsin-B substrate sequence RR labeled with amino-4-trifluoromethyl coumarin (AFC). Samples that contain cathepsin-B cleave the synthetic substrate RR-AFC to release free AFC.

[1] = amiodarone 150 mg/kg/day co-administered with fluoxetine 10 mg/kg/day, 2 weeks, vs amiodarone alone
Description: Heart, liver, kidney and lung tissues were collected at necropsy at 2 weeks.

[2] = Fluoxetine tissue concentrations, alone or co-administered with amiodarone; assay type: in vivo, Sprague-Dawley rats; settings: fluoxetine 10 mg/kg/day co-administered with amiodarone 150 mg/kg/day, 2 weeks; tissues including brain
Description: FIG. 8 is a set of graphs showing that PL-induction increased drug tissue concentrations to enhance in vivo drug efficacy.
PL was induced as indicated by an increase in the di-22:6-BMP biomarker in various tissues.

T1 sequence (P00787 80-333): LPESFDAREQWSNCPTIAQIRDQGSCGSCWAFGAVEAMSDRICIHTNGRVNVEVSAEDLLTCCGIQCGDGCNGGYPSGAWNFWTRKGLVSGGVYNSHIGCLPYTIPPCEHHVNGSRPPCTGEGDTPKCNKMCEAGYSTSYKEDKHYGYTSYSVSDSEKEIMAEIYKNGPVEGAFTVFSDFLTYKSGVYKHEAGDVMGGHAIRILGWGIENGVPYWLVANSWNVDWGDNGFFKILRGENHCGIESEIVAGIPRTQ
Chain of cathepsin B1 (P00787 80-333): as above

CCN(CC)CCCC(C)Nc1ccnc2cc(Cl)ccc12 (centres unmarked) [chloroquine]
cathepsin B1 activities (cathepsin B1): inhibited

COc1nc2ccc(Br)cc2cc1[C@@H](c1ccccc1)[C@@](O)(CCN(C)C)c1cccc2ccccc12 [bedaquiline]
multi-lamellar lysosomal inclusions and electron dense deposits (indicative of drug-induced PL) (liver, kidney, and heart): treatment-dependent increase
biomarker di-22:6-BMP in rat tissues and urine (di-22:6-BMP; co-administered bedaquiline 60 mg/kg/day and citalopram 70 mg/kg/day): increase

CCCCc1oc2ccccc2c1C(=O)c1cc(I)c(OCCN(CC)CC)c(I)c1 [amiodarone]
activity of cathepsin B in rat liver and spleen (cathepsin-B; PL induced by amiodarone): slowed
levels of free AFC in tissues compared to controls (cathepsin-B activity) (cathepsin-B; amiodarone 150 mg/kg/day, 2 weeks, liver and spleen homogenates): lower
concentration of amiodarone in the lung tissue [1]: decreased
PL biomarker di-22:6-BMP in tissues (PL induced in both treatment groups) (di-22:6-BMP): increase
di-22:6-BMP biomarker in various tissues (PL induced) (di-22:6-BMP): increase

CNCCC(Oc1ccc(C(F)(F)F)cc1)c1ccccc1 (centres unmarked) [fluoxetine]
fluoxetine concentrations in tissues, compared to fluoxetine alone [2]: increased
PL biomarker di-22:6-BMP in tissues (PL induced in both treatment groups) (di-22:6-BMP): increase
di-22:6-BMP biomarker in various tissues (PL induced) (di-22:6-BMP): increase
